Laboratory results: US11124536B2, “Uridine nucleoside derivatives, compositions and methods of use” (Tufts University, priority 2013, dated 2021)
Entries after “also recorded” stand apart in the source; their conditions may differ.

Assays:
[1] = Half-life in human whole blood; type: in vitro ADME
Oral bioavailability = settings: in vivo
human THP-1 cells = assay: Cytokine release from THP-1 cells into culture medium (multiplex cytokine analysis); type: cell-based; settings: 24 hours
Procedure: THP-1 cells, a human cell line derived from monocytes, were treated in vitro with vehicle, the P2Y6 receptor antagonist MRS 2578, or compound 5, singly or in combination. THP-1 cells were seeded in 24 well plates at a density of 4×10^5 cells/well in culture medium for 24 hours. Thereafter, vehicle, compound 5, or MRS 2578 (singly or in combination) were added to the cultures for 24 hours. Subsequently the culture medium was aspirated and subjected to multiplex cytokine analysis. Data are presented as means+/−sem. MRS 2578 has a molecular weight of about 472 and is also described using CAS number 711019-86-2.

[2] = Cmax at the effective dose; settings: mouse, in vivo; dose 10 ug/kg
PSAPP mice [3] = assay: Multiplex analysis of circulating plasma cytokine levels; type: in vivo
Procedure: Inflammatory cytokines were assessed in mouse plasma of both wild type and PS1/APP mice (Alzheimer's mouse model) and the impact of intraperitoneal delivery of the diphosphate derivative of compound 5 on circulating cytokines was assessed. […] 24 hours following the final injection, plasma was collected. Wildtype, age matched littermates and PSAPP mice (>6 months of age) were treated either with vehicle (phosphate buffered saline) or vehicle containing compound.
As part of the study described in Example 16, the levels of numerous cytokines in plasma of mice treated with vehicle or compound 5 were also evaluated. As described in Example 16, treatment was initiated when the mice were approximately 3 months old. PSAPP mice were treated for 100 days with daily injections of 10 μg/kg of compound 5 or vehicle. Following treatment and the fear conditioning task experiment, plasma was taken for multiplex cytokine analysis of circulating cytokine levels in vehicle-treated versus compound-treated PSAPP mice. Cytokine levels are assayed using a multi-plex system where beads are labelled with capture antibody specific for each analyte tested. Each bead set is coupled to a specific capture antibody and is distinguishable from beads coupled to a different capture antibody. Thus, the levels of each analyte can be evaluated and distinguished. […] In FIGS. 17-20, compound 5 is indicated along the x-axis as “compound”.

PSAPP mice [4] = assay: Contextual fear conditioning test (freezing %); type: in vivo
Procedure: On day one, animals were trained in a fear conditioning apparatus for a total of 7 minutes with a two-pairing paradigm of cue and mild foot shock (a 30-s acoustic-conditioned stimulus, 80 dB; a 2-s shock stimulus, 0.5 mA). To evaluate contextual fear learning, the animals were returned to the training context 24 hours post-training, and freezing behavior was scored for 5 minutes. Freezing behavior was monitored by MotorMonitor (Hamilton Kinder) and scored every 5 seconds.
This represents a decrease in the cognitive impairment observed in the untreated mice.

PSAPP mice [5] = assay: Postmortem immunohistochemistry of amyloid beta plaque load in cortex and hippocampus; type: in vivo
Procedure: Mice were perfused transcardially with 4% paraformaldehyde and 40 μm Coronal sections were collected. Sections were sequentially incubated in 0.3% H2O2 for 10 minutes, blocking solution for 2 hrs, blocking solution containing the primary antibody (rabbit anti-beta1-42; rabbit anti-beta1-40, from Chemicon International and rat anti-CD45) for 48 hours at 4° C., and blocking solution containing biotinylated antibody or fluorescently-labeled antibody for 2 hours at room temperature. Sections were visualized in a bright field microscope or a confocal microscope, and the optical density was obtained using MetaMorph software.
To generate these graphs showing plaque load, mice were euthanized, brain sections cut and antibodies directed against Aβ 42 were used to disclose Aβ plaques. Images were acquired digitally and an algorithm was applied to threshold the image so that plaques were isolated from the background. The algorithm then calculated the percent area of the field of view occupied by the plaques.
Brain samples were collected for Abeta analysis with immunostaining. Brains samples were collected after transcardial perfusion with phosphate buffer and 4% paraformaldehyde. Floating brain sections (40 micron) were collected using a microtome. Immunostaining for Aβ40 and Aβ42 were performed according to previously established protocol. Images with DAB staining were collected with brightfield microscopy and analyzed with ImageJ Macro. All data analysis and statistics were performed in GraphPad Prism 6.0.

For `O=C1C=CC([C@@H]2O[C@H](CO)C(O)C2O)C(=O)N1Cc1noc2ccccc12` (stereo partly shown) [compound 5], the half-life [1] was 16.4 h, the bioavailability (Oral bioavailability) was 72.2% and the “release of cytokines from THP-1 cells” value (human THP-1 cells; 10 nM) was “reduced”. The “release of IL-7 from human THP-1 cells” value (human THP-1 cells; compound 5 10 nM alone, FIG. 26) was “decreased”, the Cmax [2] was 13 nM and the “plasma levels of IL-4, IL-10, and IL-12 (IL-12(p70))” value (PSAPP mice [3]; Example 17: 10 μg/kg daily 100 days from approx. 3 months old, FIG. 17) was “statistically significant reduction”. For the same molecule, the “plasma level of p40 subunit alone (IL-12(p40))” value (PSAPP mice [3]; Example 17: 10 μg/kg daily 100 days, FIG. 17) was “does not reflect a change”, the “average plasma levels of IFN-r, IL-1β, IL-2, IL-3, IL-5, IL-6, IL-7, IL-9, IL-13, IL-17, LIF, MIP-1α, and MIP-1β” value (PSAPP mice [3]; Example 17: 10 μg/kg daily 100 days, FIGS. 17-20) was “reduced” and the “levels of M-CSF, MIP-2, Eotaxin, GM-CSF, G-CSF, LIX, MCP-1, IL-1α and IP-10” value (PSAPP mice [3]; Example 17: 10 μg/kg daily 100 days, FIGS. 18-20) was “no or substantially no change”. For the same molecule, the “plasma levels of IL-12 (IL-12(p70)), IL-13, IL-17, IL-10, IL-4, MIP-1a, MIP-1b, and IL-2” value (PSAPP mice [3]; Example 18: 10 μg/kg i.p. daily 100 days from approx. 3 months old, FIG. 21) was “statistically significant reduction”, the “plasma levels of IL-12 (IL-12(p70)), IL-13, IL-17, IL-10, MIP-1a, MIP-1b, and TNFα” value (PSAPP mice [3]; Example 19: 10 μg/kg i.p. daily 7 days from approx. 6 months old (symptomatic), FIG. 23) was “statistically significant reduction” and the “freezing time (contextual fear memory) vs vehicle” value (PSAPP mice [4]; Example 16: 10 μg/kg i.p. daily 100 days from approx. 3 months old (pre-symptomatic), FIG. 15) was “statistically significant increase”. For the same molecule, the “freezing time (contextual fear memory) vs vehicle” value (PSAPP mice [4]; Example 18: 10 μg/kg i.p. daily 100 days from approx. 3 months old, FIG. 22C, p<0.02) was “statistically significant increase”, the “size distribution of remaining plaques” value (PSAPP mice [5]; 10 μg/kg i.p. once per day for 7 days, PS1/APP mice 26 weeks) was “significantly reduced” and the Aβ40 plaque burden (PSAPP mice [5]; 10 μg/kg i.p. once per day for 7 days, PS1/APP mice 26 weeks, cortex, FIG. 13A) was “significantly reduced”. For the same molecule, the Aβ42 plaque burden (PSAPP mice [5]; 10 μg/kg i.p. once per day for 7 days, PS1/APP mice 26 weeks, cortex, FIG. 13B) was “significantly reduced”, the “plaque burden vs vehicle” value (PSAPP mice [5]; Example 16: 10 μg/kg i.p. daily 100 days from approx. 3 months old, FIG. 16) was “decrease; also recorded: reduced” and the “amyloid beta accumulation (plaque load) in the cortex” value (PSAPP mice [5]; Example 18: 10 μg/kg i.p. daily 100 days, FIG. 22A, p<0.01) was “decreased”. For the same molecule, the “amyloid beta accumulation (plaque load) in the hippocampus” value (PSAPP mice [5]; Example 18: 10 μg/kg i.p. daily 100 days, FIG. 22B, p<0.02) was “decreased”, the “amyloid beta accumulation in the hippocampus (using Aβ42)” value (PSAPP mice [5]; Example 19: 10 μg/kg i.p. daily 7 days from approx. 6 months old, FIG. 24A lower panel) was “decreased” and the “amyloid beta accumulation in the cortex (using Aβ40)” value (PSAPP mice [5]; Example 19: 10 μg/kg i.p. daily 7 days from approx. 6 months old, FIG. 24A upper panel) was “decreased”. The plaque size (PSAPP mice [5]; Example 19: 10 μg/kg i.p. daily 7 days, FIG. 24B) was “decrease”.
